From PMC11434026, “Development and Validation of an LC-MS/MS Assay for the Quantitation of MO-OH-Nap Tropolone in Mouse Plasma: Application to In Vitro and In Vivo Pharmacokinetic Studies” (Molecules, 2024)

Key:
[1] = Blood to plasma ratio (B/P) in fresh mouse blood; type: in vitro ADME; details: 1 µM, 37 °C
Experimental: Fresh mouse blood (800 µL) was incubated in a water bath maintained at 37 °C for 10 min prior to drug spiking. Blood was spiked with the drug at concentrations of 1 µM to maintain organic content < 1%. Aliquots of 50 µL were collected at different time points (0, 30, and 60 min) for blood analysis as well an additional sample of 120 µL was collected into a micro-centrifuge tube and centrifuged at 4000× g for 10 min at 4 °C to separate 50 µL plasma for analysis. For matrix match and calibration, blank plasma of 50 µL was added to the collected blood aliquot, and 50 µL of blank blood was added to the extract of 50 µL plasma. The whole blood and plasma samples were further processed by PPT as described above. The analyte peak area ratios were used to calculate the (B/P) ratio using Equation (5). (5) (B/P) ratio=Blood Concentration /Plasma Concentration

[2] = Gastrointestinal fluid stability (SGF, SIF, PBS); type: physicochemical; details: 37 °C, 1 µg/mL
Experimental: The gastric stability of MO-OH-Nap was determined at different physiological pH conditions using simulated gastric/intestinal fluid (SGF/SIF) or PBS (pH7.4) prepared with USP specifications. Briefly, simulated gastric fluid (SGF), pH 1.2, was prepared by dissolving […] of sodium chloride (NaCl) and 3.2 g of pepsin in 7 mL hydrochloric acid (HCl) and a sufficient amount of water to make 1000 mL. The simulated intestinal fluid (SIF), pH 6.8, was prepared by dissolving 6.805 g of monobasic potassium phosphate in 250 mL of water. Then 77 mL of 0.2 N sodium hydroxide (NaOH) was mixed with 500 mL water and 10 g of pancreatin, then made up to 1000 mL. The SIF solution is adjusted to pH 6.8 ± 0.1 with either 0.2 N NaOH or 0.2 N HCl. MO-OH-Nap at 1 µg/mL concentration was incubated with SGF, SIF and PBS (100 mM pH 7.4) at 37 °C on a shaking water bath, n = 3. Samples (100 µL) were collected at 0, 15, 30, 60, and 120 min. Immediately after sample collection, 300 µL ACN was added as a quenching solvent to stop chemical degradation. IS solution (10 µL from 1 µg/mL stock) was added to each sample, vortexed the centrifuged at 14,000 rpm (22,000× g) and 4 °C, and then transferred to HPLC vial for LC-MS/MS analysis. Stability was determined through the percentage of the parent drug remaining at different time points relative to the parent drug at 0 min (100% parent).

[3] = test system: mouse plasma proteins; assay: Plasma protein binding by Rapid Equilibrium Dialysis (RED); type: in vitro ADME; details: for % Drug Remaining at 5 h ± SD: 37 °C; for Equilibrium at 5 h ± SD: receiver/donor concentration; for % Plasma Protein Bound ± SD: mouse plasma; for % Drug Remaining at 5 h ± SD / % Plasma Protein Bound ± SD: 5 h
Experimental: […] The RED Kit represents 90 wells with two chambers at each well (red chamber for plasma and white buffer chamber separated by Teflon base plate. Prior to the experiments, RED kit was rinsed with 10% ethanol for 10 min and left to dryness. Also, mouse plasma was centrifuged at 2200 rpm (540× g) for 5 min and adjusted to pH […] with lactic acid. In brief, MO-OH-Nap spiked plasma samples (300 µL) were added in red chamber. The buffer chamber contained […] of Phosphate-buffered saline (100 mM, pH 7.4), which contained 100 mM sodium phosphate (Na3PO4) and 150 mM NaCl. The RED kit plate was covered with sealing tape and incubated at 37 °C on an orbital shaker at 300 rpm for 5 h. Aliquot of 50 µL were collected from both chambers, then mixed with equal amount of buffer or blank plasma, consecutively, for analysis. The samples were then processed using PPT extraction technique, as per described in the Section 4.4, and analyzed by LC-MS/MS.
Additionally, the plasma stability and the non-specific binding potential of MO-OH-Nap to the RED kit dialysis membrane were determined separately at the same time from the remaining plasma samples spiked with MO-OH-Nap.
Stability and non-specific binding were assessed by collecting samples at 0 h and 5 h of spiked MO-OH-Nap […] that was incubated in the same PPB condition for 5 h. The two samples were then analyzed by LC-MS/MS and the concentration was then compared between the two time points. The stability, equilibrium, device recovery, and PPB in plasma were calculated using the following equations:(6) % Drug Bound=Concentrationdonor cell−Conentrationreceiver cell/Concentrationdonor cell×100 (7) % Device Recovery=Concentrationreceiver cell+Concentrationdonor cell/Concentration5 h×100 (8) % Remaining at 5 h=Concentration5 h/Concentration0 h×100 (9) Equilibrium at 5 h=Concentrationreceiver cell/Concentrationdonor cell

[4] = Stability in mouse plasma at storage and use conditions; type: physicochemical
Experimental: The chemical stability of MO-OH-Nap and IS in plasma samples were assessed at LQC, MQC, and HQC concentrations, n = 3, under the following storage conditions: bench-top storage (up to 6 h at room temperature, 21 ± 0.5 °C), three freeze–thaw cycles (−80 ± 0.5 °C to room temperature for 30 min, back to −80 ± 0.5 °C then stored for 24 h, the cycle was repeated twice more), long-term storage (12 months at −80 ± 0.5 °C), and 24 h auto-sampler stability of extracted samples (at 4 ± 0.5 °C).

[5] = autosampler 4 °C, up to 24 h, extracted samples, HQC 375 ng/mL
[6] = autosampler 4 °C, up to 24 h, extracted samples, LQC 3 ng/mL
[7] = autosampler 4 °C, up to 24 h, extracted samples, MQC 200 ng/mL
[8] = bench-top 21 °C, up to 6 h, HQC 375 ng/mL
[9] = bench-top 21 °C, up to 6 h, LQC 3 ng/mL
[10] = bench-top 21 °C, up to 6 h, MQC 200 ng/mL
[11] = freeze-thaw −80 °C, 3 cycles, HQC 375 ng/mL
[12] = freeze-thaw −80 °C, 3 cycles, LQC 3 ng/mL
[13] = freeze-thaw −80 °C, 3 cycles, MQC 200 ng/mL
[14] = long-term −80 °C, 12 months, HQC 375 ng/mL
[15] = long-term −80 °C, 12 months, LQC 3 ng/mL
[16] = long-term −80 °C, 12 months, MQC 200 ng/mL

O=c1c(O)ccccc1-c1ccc2ccccc2c1 [MO-OH-Nap, MO-OH-Nap tropolone]
B/P Ratio ([1]; 0 min): 1.1 ± 0.1
B/P Ratio ([1]; 30 min): 0.9 ± 0.2
B/P Ratio ([1]; 60 min): 1.0 ± 0.12
drug remaining ([2]; PBS pH 7.4, 120 min): > 80%
drug remaining ([2]; SGF pH 1.2, 120 min): > 80%
drug remaining ([2]; SIF pH 6.8, 120 min): > 80%
% Drug Remaining at 5 h ± SD ([3]; 1 µg/mL): 105.6 ± 0.8%
Equilibrium at 5 h ± SD ([3]; 1 µg/mL): 0.3 ± 0.5
% Drug Remaining at 5 h ± SD ([3]; 10 µg/mL): 91.1 ± 2.5%
Equilibrium at 5 h ± SD ([3]; 10 µg/mL): 0.1 ± 0.00
% Plasma Protein Bound ± SD ([3]; 1 µg/mL): 99.6 ± 0.1%
% Plasma Protein Bound ± SD ([3]; 10 µg/mL): 99.7 ± 0.1%
% Accuracy [4, 5]: 90.7 ± 5.3%
Measured Mean Conc. [4, 5]: 340.2 ± 20.1 ng/mL
% Accuracy [4, 6]: 101.9 ± 5.8%
Measured Mean Conc. [4, 6]: 3.1 ± 0.2 ng/mL
% Accuracy [4, 7]: 90.1 ± 0.6%
Measured Mean Conc. [4, 7]: 180.2 ± 1.10 ng/mL
% Accuracy [4, 8]: 101.5 ± 5.6%
Measured Mean Conc. [4, 8]: 380.5 ± 20.9 ng/mL
% Accuracy [4, 9]: 107.8 ± 14.8%
Measured Mean Conc. [4, 9]: 3.2 ± 0.5 ng/mL
% Accuracy [4, 10]: 95.8 ± 9.1%
Measured Mean Conc. [4, 10]: 191.6 ± 18.1 ng/mL
% Accuracy [4, 11]: 88.6 ± 4.7%
Measured Mean Conc. [4, 11]: 332.2 ± 17.6 ng/mL
% Accuracy [4, 12]: 100.5 ± 13.3%
Measured Mean Conc. [4, 12]: 3.0 ± 0.4 ng/mL
% Accuracy [4, 13]: 84.0 ± 0.9%
Measured Mean Conc. [4, 13]: 167.9 ± 1.8 ng/mL
% Accuracy [4, 14]: 92.7 ± 0.4%
Measured Mean Conc. [4, 14]: 347.4 ± 1.5 ng/mL
% Accuracy [4, 15]: 95.6 ± 2.4%
Measured Mean Conc. [4, 15]: 2.9 ± 0.1 ng/mL
% Accuracy [4, 16]: 99.8 ± 0.6%
Measured Mean Conc. [4, 16]: 199.5 ± 1.3 ng/mL
